Tests used:
HpoR (Ms5860) = target: T1, HpoR (Ms5860) (Mycolicibacterium smegmatis, UniProt A0R4J9); assay: isothermal titration calorimetry; type: binding
T1 sequence (A0R4J9 1-199): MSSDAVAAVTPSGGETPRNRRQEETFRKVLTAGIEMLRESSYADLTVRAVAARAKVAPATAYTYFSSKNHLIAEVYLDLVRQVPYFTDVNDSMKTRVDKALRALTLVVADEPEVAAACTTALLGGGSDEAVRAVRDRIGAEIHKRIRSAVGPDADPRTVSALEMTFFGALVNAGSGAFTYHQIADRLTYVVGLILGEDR

[1] = target: Mtb HpoR (Rv0767c); HpoRMtb (Mycobacterium tuberculosis, UniProt P9WMD7)
[2] = tested on: HpoR (HpoRMS) (Mycobacterium smegmatis mc2 155); assay: SPR

Chain of Mtb HpoR (Rv0767c); HpoRMtb (P9WMD7 whole entry): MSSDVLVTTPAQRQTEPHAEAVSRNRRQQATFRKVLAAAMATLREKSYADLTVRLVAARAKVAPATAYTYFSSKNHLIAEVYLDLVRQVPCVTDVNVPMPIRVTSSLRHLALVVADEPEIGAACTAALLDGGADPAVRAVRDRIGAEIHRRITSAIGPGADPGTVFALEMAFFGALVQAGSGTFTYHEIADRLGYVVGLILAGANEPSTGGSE

## Nc1nc2c(ncn2[C@@H]2O[C@@H]3COP(=O)(O)O[C@H]4[C@@H](O)[C@H](n5cnc6c(=O)[nH]c(N)nc65)O[C@@H]4COP(=O)(O)O[C@H]3[C@H]2O)c(=O)[nH]1 [c-di-GMP]
HpoR (Ms5860)
  Kd: 1780 ± 230 nM
[1]
  UV cross-linking with radiolabelled ligand, SDS-PAGE autoradiography: Mtb HpoR (Rv0767c) showed a good binding ability for c-di-GMP

## Ms5860p, biotin-labeled
[2]
  binding signal: 150 RU

Reference: publication PMC5909442 (Nucleic Acids Research, 2018)
